Results reported in patent US20250101041A1, “POSITIVE ALLOSTERIC MODULATORS OF THE MUSCARINIC ACETYLCHOLINE RECEPTOR M4” (Vanderbilt University, priority 2022, published 2025).
pEC50: −log10 of the molar value.

Biological target: T1, human mAChR M4 (Homo sapiens, UniProt P08173)
T1 construct: expressed in transfected cells; host or cells: CHO-K1 (American Type Culture Collection), stably expressing hM4 and Gqi5
T1 sequence (P08173 1-479): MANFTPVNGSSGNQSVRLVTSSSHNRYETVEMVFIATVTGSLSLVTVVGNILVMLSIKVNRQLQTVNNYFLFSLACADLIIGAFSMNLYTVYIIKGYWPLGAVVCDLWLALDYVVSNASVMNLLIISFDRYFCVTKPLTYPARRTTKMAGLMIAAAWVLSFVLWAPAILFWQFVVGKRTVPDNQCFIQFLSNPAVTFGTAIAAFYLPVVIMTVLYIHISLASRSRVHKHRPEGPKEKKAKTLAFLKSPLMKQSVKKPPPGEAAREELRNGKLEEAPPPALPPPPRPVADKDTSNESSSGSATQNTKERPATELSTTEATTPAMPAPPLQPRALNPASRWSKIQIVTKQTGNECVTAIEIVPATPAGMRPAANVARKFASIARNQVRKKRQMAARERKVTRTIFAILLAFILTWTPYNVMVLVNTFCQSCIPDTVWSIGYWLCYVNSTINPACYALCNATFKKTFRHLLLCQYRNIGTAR
Assay: mAChR M4 cell-based functional assay: calcium mobilization (Fluo-4, FDSS), potentiation of EC20 acetylcholine response in hM4-Gqi5 CHO-K1 cells
Conditions: human M4; for Emax at 30 µM: CHO-K1, % ACh maximum at 30 μM; for pEC50: potentiation of EC20 acetylcholine response, calcium mobilization
Procedure, shortened: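 CHO-K1 cells stably co-expressing human M4 and chimeric Gqi5, loaded with Fluo-4 AM (50 min, 37 °C). Compounds in 11-point 1:3 series added first; EC20 acetylcholine added at 144 s and again at 230 s. Calcium read on FDSS at 1 Hz; EC50 and Emax from four-parameter logistic fit of potentiated EC20 response.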

## Cc1cc(F)c(F)c(-c2cnc3c(c2)CN(c2nn4c(=O)cc(C)nc4c(C)c2C)CC3)c1 [Compound 1-272, 7-(3-(2,3-difluoro-5-methylphenyl)-7,8-dihydro-1,6-naphthyridin-6(5H)-yl)-2,8,9-trimethyl-4H-pyrimido[1,2-b]pyridazin-4-one]
  Emax at 30 µM: 82%
  pEC50: 6.09

## Cc1cc(=O)n2nc(N3CCc4ncc(-c5cc(F)cc(F)c5F)cc4C3)c(C)c(C)c2n1 [Compound 1-273, 2,8,9-trimethyl-7-(3-(2,3,5-trifluorophenyl)-7,8-dihydro-1,6-naphthyridin-6(5H)-yl)-4H-pyrimido[1,2-b]pyridazin-4-one]
  Emax at 30 µM: 75%
  pEC50: 5.96

## Cc1cc(=O)n2nc(N3CCc4ncc(-c5ccc(F)cc5C)cc4C3)c(C)c(C)c2n1 [Compound 1-274, 7-(3-(4-fluoro-2-methylphenyl)-7,8-dihydro-1,6-naphthyridin-6(5H)-yl)-2,8,9-trimethyl-4H-pyrimido[1,2-b]pyridazin-4-one]
  Emax at 30 µM: 84%
  pEC50: 6.35

## Cc1cc(=O)n2nc(N3CCc4ncc(-c5ccccc5OC(F)(F)F)cc4C3)c(C)c(C)c2n1 [Compound 1-275, 2,8,9-trimethyl-7-(3-(2-(trifluoromethoxy)phenyl)-7,8-dihydro-1,6-naphthyridin-6(5H)-yl)-4H-pyrimido[1,2-b]pyridazin-4-one]
  Emax at 30 µM: 54%
  pEC50: 5.75

## COCc1c(C)c(N2CCc3ncc(C(F)(F)F)cc3C2)nn2c(=O)ccnc12 [Compound 1-276, 9-(methoxymethyl)-8-methyl-7-(3-(trifluoromethyl)-7,8-dihydro-1,6-naphthyridin-6(5H)-yl)-4H-pyrimido[1,2-b]pyridazin-4-one]
  Emax at 30 µM: 66%

## Cc1cc(=O)n2nc(N3CCc4ncc(-c5ccccc5C(F)(F)F)cc4C3)c(C)c(C)c2n1 [Compound 1-277, 2,8,9-trimethyl-7-(3-(2-(trifluoromethyl)phenyl)-7,8-dihydro-1,6-naphthyridin-6(5H)-yl)-4H-pyrimido[1,2-b] pyridazin-4-one]
  Emax at 30 µM: 57%
  pEC50: 5.95

## Cc1cc(=O)n2nc(N3CCc4ncc(-c5ccccc5Cl)cc4C3)c(C)c(C)c2n1 [Compound 1-278, 7-(3-(2-chlorophenyl)-7,8-dihydro-1,6-naphthyridin-6(5H)-yl)-2,8,9-trimethyl-4H-pyrimido[1,2-b]pyridazin-4-one]
  Emax at 30 µM: 81%

## Cc1cc(=O)n2nc(N3CCc4ncc(-c5ccc(F)cc5F)cc4C3)c(C)c(C)c2n1 [Compound 1-279, 7-(3-(2,4-difluorophenyl)-7,8-dihydro-1,6-naphthyridin-6(5H)-yl)-2,8,9-trimethyl-4H-pyrimido[1,2-b]pyridazin-4-one]
  Emax at 30 µM: 81%
  pEC50: 5.95

## Cc1cc(=O)n2nc(N3CCc4ncc(-c5ccccc5OC(C)C)cc4C3)c(C)c(C)c2n1 [Compound 1-280, 7-(3-(2-isopropoxyphenyl)-7,8-dihydro-1,6-naphthyridin-6(5H)-yl)-2,8,9-trimethyl-4H-pyrimido[1,2-b]pyridazin-4-one]
  Emax at 30 µM: 52%
  pEC50: 6.53

## Cc1cc(=O)n2nc(N3CCc4ncc(-c5cc(F)ncc5F)cc4C3)c(C)c(C)c2n1 [Compound 1-281, 7-(3-(2,5-difluoropyridin-4-yl)-7,8-dihydro-1,6-naphthyridin-6(5H)-yl)-2,8,9-trimethyl-4H-pyrimido[1,2-b]pyridazin-4-one]
  Emax at 30 µM: 85%
  pEC50: 6.30

## COc1cnccc1-c1cnc2c(c1)CN(c1nn3c(=O)cc(C)nc3c(C)c1C)CC2 [Compound 1-282, 7-(3-(3-methoxypyridin-4-yl)-7,8-dihydro-1,6-naphthyridin-6(5H)-yl)-2,8,9-trimethyl-4H-pyrimido[1,2-b]pyridazin-4-one]
  Emax at 30 µM: 90%
  pEC50: 6.32

## Cc1c(N2CCc3ncc(-c4ccc(F)c(F)c4)cc3C2)nn2c(=O)cc(C(F)F)nc2c1C [Compound 1-283, 2-(difluoromethyl)-7-(3-(3,4-difluorophenyl)-7,8-dihydro-1,6-naphthyridin-6(5H)-yl)-8,9-dimethyl-4H-pyrimido[1,2-b]pyridazin-4-one]
  Emax at 30 µM: 79%
  pEC50: 6.05

## Cc1cc(F)c(F)c(-c2cnc3c(c2)CN(c2nn4c(=O)cc(C(F)F)nc4c(C)c2C)CC3)c1 [Compound 1-284, 7-(3-(2,3-difluoro-5-methylphenyl)-7,8-dihydro-1,6-naphthyridin-6(5H)-yl)-2-(difluoromethyl)-8,9-dimethyl-4H-pyrimido[1,2-b] pyridazin-4-one]
  Emax at 30 µM: 77%
  pEC50: 5.96

## COc1cc(C)c(-c2cnc3c(c2)CN(c2nn4c(=O)cc(C)nc4cc2C)CC3)cn1 [Compound 1-285, 7-(3-(6-methoxy-4-methylpyridin-3-yl)-7,8-dihydro-1,6-naphthyridin-6(5H)-yl)-2,8-dimethyl-4H-pyrimido[1,2-b]pyridazin-4-one]
  Emax at 30 µM: 89%
  pEC50: 6.26

## Cc1cc(=O)n2nc(N3CCc4ncc(-c5cncnc5)cc4C3)c(C)cc2n1 [Compound 1-286, 2,8-dimethyl-7-(3-(pyrimidin-5-yl)-7,8-dihydro-1,6-naphthyridin-6(5H)-yl)-4H-pyrimido[1,2-b]pyridazin-4-one]
  Emax at 30 µM: 68%
  pEC50: 5.06

## Cc1cc(=O)n2nc(N3CCc4ncc(-c5cnn(C6COC6)c5)cc4C3)c(C)cc2n1 [Compound 1-287, 2,8-dimethyl-7-(3-(1-(oxetan-3-yl)-1H-pyrazol-4-yl)-7,8-dihydro-1,6-naphthyridin-6(5H)-yl)-4H-pyrimido[1,2-b]pyridazin-4-one]
  Emax at 30 µM: 85%
  pEC50: 5.92

## Cc1cc(=O)n2nc(N3CCc4ncc(-c5cnn6ccccc56)cc4C3)c(C)cc2n1 [Compound 1-288, 2,8-dimethyl-7-(3-(pyrazolo[1,5-a]pyridin-3-yl)-7,8-dihydro-1,6-naphthyridin-6(5H)-yl)-4H-pyrimido[1,2-b] pyridazin-4-one]
  Emax at 30 µM: 84%
  pEC50: 6.51

## Cc1cncc(-c2cnc3c(c2)CN(c2nn4c(=O)cc(C)nc4cc2C)CC3)c1 [Compound 1-289, 2,8-dimethyl-7-(3-(5-methylpyridin-3-yl)-7,8-dihydro-1,6-naphthyridin-6(5H)-yl)-4H-pyrimido[1,2-b] pyridazin-4-one]
  Emax at 30 µM: 70%
  pEC50: 5.34

## Cc1cc(=O)n2nc(N3CCc4ncc(-c5cccnc5)cc4C3)c(C)cc2n1 [Compound 1-290, 2,8-dimethyl-7-(3-(pyridin-3-yl)-7,8-dihydro-1,6-naphthyridin-6(5H)-yl)-4H-pyrimido[1,2-b]pyridazin-4-one]
  Emax at 30 µM: 90%
  pEC50: 6.43

## Cc1cc(=O)n2nc(N3CCc4ncc(-c5cnn(CC(F)(F)F)c5)cc4C3)c(C)cc2n1 [Compound 1-291, 2,8-dimethyl-7-(3-(1-(2,2,2-trifluoroethyl)-1H-pyrazol-4-yl)-7,8-dihydro-1,6-naphthyridin-6(5H)-yl)-4H-pyrimido[1,2-b]pyridazin-4-one]
  Emax at 30 µM: 82%
  pEC50: 6.45

## Cc1ccc(-c2cnc3c(c2)CN(c2nn4c(=O)cc(C)nc4cc2C)CC3)c(C)c1 [Compound 1-292, 7-(3-(2,4-dimethylphenyl)-7,8-dihydro-1,6-naphthyridin-6(5H)-yl)-2,8-dimethyl-4H-pyrimido[1,2-b]pyridazin-4-one]
  Emax at 30 µM: 92%
  pEC50: 6.32

## Cc1ccc(-c2cnc3c(c2)CN(c2nn4c(=O)cc(C)nc4cc2C)CC3)cc1 [Compound 1-293, 2,8-dimethyl-7-(3-(p-tolyl)-7,8-dihydro-1,6-naphthyridin-6(5H)-yl)-4H-pyrimido[1,2-b]pyridazin-4-one]
  Emax at 30 µM: 88%
  pEC50: 6.48

## Cc1cc(=O)n2nc(N3CCc4ncc(-c5cnn(C)c5C)cc4C3)c(C)cc2n1 [Compound 1-294, 7-(3-(1,5-dimethyl-1H-pyrazol-4-yl)-7,8-dihydro-1,6-naphthyridin-6(5H)-yl)-2,8-dimethyl-4H-pyrimido[1,2-b]pyridazin-4-one]
  Emax at 30 µM: 99%
  pEC50: 6.61

## COc1ccncc1-c1cnc2c(c1)CN(c1nn3c(=O)cc(C)nc3cc1C)CC2 [Compound 1-295, 7-(3-(4-methoxypyridin-3-yl)-7,8-dihydro-1,6-naphthyridin-6(5H)-yl)-2,8-dimethyl-4H-pyrimido[1,2-b]pyridazin-4-one]
  Emax at 30 µM: 96%
  pEC50: 7.05

## Cc1cc2nccn2cc1-c1cnc2c(c1)CN(c1nn3c(=O)ccnc3c(C)c1C)CC2 [Compound 1-296, 8,9-dimethyl-7-(3-(7-methylimidazo[1,2-a]pyridin-6-yl)-7,8-dihydro-1,6-naphthyridin-6(5H)-yl)-4H-pyrimido[1,2-b]pyridazin-4-one]
  Emax at 30 µM: 62%
  pEC50: 6.25

## Cc1cc(=O)n2nc(N3CCc4ncc(-c5cccs5)cc4C3)c(C)cc2n1 [Compound 1-297, 2,8-dimethyl-7-(3-(thiophen-2-yl)-7,8-dihydro-1,6-naphthyridin-6(5H)-yl)-4H-pyrimido[1,2-b]pyridazin-4-one]
  Emax at 30 µM: 87%
  pEC50: 7.12
